Assay results published in article PMC7932537, “Quantitative profiling of protease specificity” (PLoS Computational Biology, 2021).

Tests used:
MMP-2 = biological target: T1, MMP-2 (Homo sapiens, UniProt P08253); assay: K(obs) of individual phage substrates (set of 1369); type: biochemical; details: MMP2
T1 sequence (P08253 110-660): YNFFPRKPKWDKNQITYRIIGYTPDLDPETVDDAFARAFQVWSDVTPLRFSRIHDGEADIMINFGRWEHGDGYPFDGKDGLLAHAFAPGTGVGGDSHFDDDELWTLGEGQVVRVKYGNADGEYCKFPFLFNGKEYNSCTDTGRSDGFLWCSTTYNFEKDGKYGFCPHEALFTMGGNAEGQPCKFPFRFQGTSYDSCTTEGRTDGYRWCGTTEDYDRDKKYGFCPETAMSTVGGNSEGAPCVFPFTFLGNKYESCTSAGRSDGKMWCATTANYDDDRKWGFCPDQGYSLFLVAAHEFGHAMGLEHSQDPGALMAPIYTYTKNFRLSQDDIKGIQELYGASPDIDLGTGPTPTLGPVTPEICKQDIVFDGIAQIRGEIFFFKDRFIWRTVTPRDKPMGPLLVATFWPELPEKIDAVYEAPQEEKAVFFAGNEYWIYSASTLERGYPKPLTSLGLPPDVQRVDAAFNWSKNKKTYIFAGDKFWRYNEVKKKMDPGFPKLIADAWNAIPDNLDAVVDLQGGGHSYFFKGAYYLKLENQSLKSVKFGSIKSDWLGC

MMP-9 = MMP-9 (Homo sapiens, UniProt P14780); assay: as above; type: biochemical; details: MMP9, individual phage substrates, set of 1369 peptides
[1] = individual phage substrates, set of 1369 peptides, cleavage position marked by '-' in the sequence
[2] = '-' marks the cleavage position (P1-P1')
[3] = individual phage substrate from the set of 1369 peptides, cleavage position marked by the dash in the sequence
[4] = dash in sequence marks cleavage position

Chain of MMP-9 (P14780 94-707): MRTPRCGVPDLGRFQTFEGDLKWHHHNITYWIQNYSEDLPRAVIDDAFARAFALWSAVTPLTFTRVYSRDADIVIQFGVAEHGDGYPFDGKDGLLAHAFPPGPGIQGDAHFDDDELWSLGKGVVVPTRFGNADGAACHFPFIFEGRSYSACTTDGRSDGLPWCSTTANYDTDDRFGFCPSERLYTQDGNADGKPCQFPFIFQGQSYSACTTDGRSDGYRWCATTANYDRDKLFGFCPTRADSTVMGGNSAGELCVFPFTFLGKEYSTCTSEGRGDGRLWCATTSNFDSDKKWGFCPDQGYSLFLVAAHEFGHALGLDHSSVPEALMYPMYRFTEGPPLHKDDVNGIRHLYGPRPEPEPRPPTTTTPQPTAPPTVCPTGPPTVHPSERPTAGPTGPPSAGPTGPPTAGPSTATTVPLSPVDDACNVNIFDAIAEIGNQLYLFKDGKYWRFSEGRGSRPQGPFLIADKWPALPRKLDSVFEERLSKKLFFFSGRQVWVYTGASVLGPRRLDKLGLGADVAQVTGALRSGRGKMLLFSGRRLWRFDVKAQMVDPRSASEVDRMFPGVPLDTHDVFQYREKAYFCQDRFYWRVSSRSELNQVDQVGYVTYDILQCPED

Row | Kobs (MMP-2; [1]) [M⁻¹ s⁻¹] | Kobs (MMP-9; [2]) [M⁻¹ s⁻¹] | Kobs (MMP-2; [3]) [M⁻¹ s⁻¹] | Kobs (MMP-9; [4]) [M⁻¹ s⁻¹] | Substance
1 | 12792.1 | 12792.1 |  |  | YLPRA-ITASG
2 |  |  | 10866.7 | 0 | KVLAS-LTASG
3 |  |  | 0 | 0 | SGSYP-LTRTA
4 |  |  | 0 | 0 | RAGFQ-LTASG
5 | 0 | 0 |  |  | GTLLD-LITAS
6 | 6131.32 | 12792.1 |  |  | APVYA-LTASG
7 | 12792.1 | 12792.1 |  |  | GAPSS-LRTAS
8 | 7815.03 | 0 |  |  | NRIGN-FTASG
9 | 2157.02 | 5090.5 |  |  | SGAYS-LRVTA
10 |  |  | 451.441 | 0 | GGSGN-LTFLA
11 |  |  | 142.481 | 261.974 | GGSGR-LVMTY
12 |  |  | 10866.7 | 10866.7 | RGPVF-LTASG
13 |  |  | 56.119 | 201.585 | GFAKH-LLTAS
14 |  |  | 201.585 | 836.403 | GAAWG-LNTAS
15 | 7386.83 | 4335.13 |  |  | SDIRW-LTASG
16 |  |  | 12792.1 | 8941.32 | SGPRS-LSQTA
17 | 619.843 | 1196.62 |  |  | GSALA-LTTAS
18 | 3079.62 | 0 |  |  | RTYSH-LTASG
19 | 551.253 | 1327.88 |  |  | GRVWH-LQTAS
20 | 12792.1 | 7815.03 |  |  | RVIRH-LTASG

Second part, the substance before the results:

Row | Substance | Kobs (MMP-2; [1]) [M⁻¹ s⁻¹] | Kobs (MMP-9; [2]) [M⁻¹ s⁻¹] | Kobs (MMP-2; [3]) [M⁻¹ s⁻¹] | Kobs (MMP-9; [4]) [M⁻¹ s⁻¹]
21 | QVPVF-LTASG | 12792.1 | 8321.48 |  | 
22 | RNVNF-LTASG |  |  | 2409.72 | 484.315
23 | TMPYL-LTASG |  |  | 1870.4 | 7815.03
24 | NKTAW-LTASG | 7386.83 | 799.117 |  | 
25 | ERPGW-LTASG | 7386.83 | 3438.54 |  | 
26 | IQLAW-LTASG | 12792.1 | 5090.5 |  | 
27 | TALGY-LTASG | 12792.1 | 323.705 |  | 
28 | GVGHN-LRTAS | 142.481 | 231.616 |  | 
29 | QRMDL-LTASG | 0 | 0 |  | 
30 | ELYAS-LTASG | 12792.1 | 0 |  | 
31 | GTIAY-LNTAS | 1870.4 | 0 |  | 
32 | KWPER-LTASG |  |  | 2038.8 | 1925.41
33 | SRPLN-LTASG |  |  | 6688.74 | 7386.83
34 | GSGAK-LIVRT | 0 | 0 |  | 
35 | KPVSA-LTASG |  |  | 12792.1 | 551.253
36 | SGPLA-VRTTA | 12792.1 | 12792.1 |  | 
37 | GGSGP-LHQTK |  |  | 1154.21 | 2218.08
38 | HHPAA-LTASG | 12792.1 | 12792.1 |  | 
39 | GPAQD-LYTAS |  |  | 0 | 0
40 | SGAFH-ILGTA | 1030.73 | 5667.28 |  | 
41 | EVSQH-LTASG | 690.17 | 551.253 |  | 
42 | HLPTA-LTASG | 12792.1 | 8941.32 |  | 
43 | GTIDL-LTTAS | 0 | 201.585 |  | 
44 | SGAQA-LTLTA | 171.876 | 113.394 |  | 
45 | SGFSE-LTLTA | 0 | 0 |  | 
46 | GKVRN-LTTAS | 10866.7 | 8321.48 |  | 
